A value given as a limit tells only on which side of the number the result lay.

The term IC50 denotes the concentration needed to halve the response being measured. A low value points to higher potency.

Test [1] concerns the target Glutamate receptor ionotropic, NMDA 2B (Homo sapiens) (UniProt Q13224). Description: Selectivity interaction (Panel of kinases, GPCRs, ion channels and transporters (enzymatic assay)) EUB0000266bCl GRIN2B.
Test [2] has as its target Epithelial discoidin domain-containing receptor 1 (Homo sapiens) (UniProt Q08345). Conditions: at 10 µM.
For test [3], the target named is Insulin receptor-related protein (Homo sapiens) (UniProt P14616). Description: Selectivity interaction (KinomeScan (DiscoverX)) EUB0001079a INSRR. The settings on record: at 1 µM.
The target of test [4] is Dual specificity protein kinase CLK4 (Homo sapiens, UniProt Q9HAZ1). Description: Selectivity interaction (KinomeScan (DiscoverX)) EUB0001049a CLK4. Conditions: at 1 µM.
Sequence of Dual specificity protein kinase CLK4 (Q9HAZ1 whole entry, looked up): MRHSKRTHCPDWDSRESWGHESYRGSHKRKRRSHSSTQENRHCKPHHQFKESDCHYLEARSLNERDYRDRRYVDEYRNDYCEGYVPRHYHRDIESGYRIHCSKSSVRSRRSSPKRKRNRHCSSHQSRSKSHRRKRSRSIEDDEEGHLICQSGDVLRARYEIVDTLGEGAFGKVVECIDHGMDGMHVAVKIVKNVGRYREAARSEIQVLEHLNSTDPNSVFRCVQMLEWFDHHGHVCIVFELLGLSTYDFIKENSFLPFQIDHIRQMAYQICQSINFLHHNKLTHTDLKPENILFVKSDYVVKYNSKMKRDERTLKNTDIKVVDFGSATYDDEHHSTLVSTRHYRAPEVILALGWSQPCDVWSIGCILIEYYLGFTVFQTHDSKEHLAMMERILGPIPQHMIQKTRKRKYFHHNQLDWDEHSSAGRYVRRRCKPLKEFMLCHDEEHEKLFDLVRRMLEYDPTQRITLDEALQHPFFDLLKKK
The target in test [5] is Glutamate receptor 1 (Homo sapiens) (UniProt P42261). Description: Selectivity interaction (Eurofins CEREP Diversity Profile (receptors and ion channels)) EUB0000279b GRIA1. The settings on record: at 10 µM.
Sequence of Glutamate receptor 1 (Homo sapiens) (P42261 whole entry): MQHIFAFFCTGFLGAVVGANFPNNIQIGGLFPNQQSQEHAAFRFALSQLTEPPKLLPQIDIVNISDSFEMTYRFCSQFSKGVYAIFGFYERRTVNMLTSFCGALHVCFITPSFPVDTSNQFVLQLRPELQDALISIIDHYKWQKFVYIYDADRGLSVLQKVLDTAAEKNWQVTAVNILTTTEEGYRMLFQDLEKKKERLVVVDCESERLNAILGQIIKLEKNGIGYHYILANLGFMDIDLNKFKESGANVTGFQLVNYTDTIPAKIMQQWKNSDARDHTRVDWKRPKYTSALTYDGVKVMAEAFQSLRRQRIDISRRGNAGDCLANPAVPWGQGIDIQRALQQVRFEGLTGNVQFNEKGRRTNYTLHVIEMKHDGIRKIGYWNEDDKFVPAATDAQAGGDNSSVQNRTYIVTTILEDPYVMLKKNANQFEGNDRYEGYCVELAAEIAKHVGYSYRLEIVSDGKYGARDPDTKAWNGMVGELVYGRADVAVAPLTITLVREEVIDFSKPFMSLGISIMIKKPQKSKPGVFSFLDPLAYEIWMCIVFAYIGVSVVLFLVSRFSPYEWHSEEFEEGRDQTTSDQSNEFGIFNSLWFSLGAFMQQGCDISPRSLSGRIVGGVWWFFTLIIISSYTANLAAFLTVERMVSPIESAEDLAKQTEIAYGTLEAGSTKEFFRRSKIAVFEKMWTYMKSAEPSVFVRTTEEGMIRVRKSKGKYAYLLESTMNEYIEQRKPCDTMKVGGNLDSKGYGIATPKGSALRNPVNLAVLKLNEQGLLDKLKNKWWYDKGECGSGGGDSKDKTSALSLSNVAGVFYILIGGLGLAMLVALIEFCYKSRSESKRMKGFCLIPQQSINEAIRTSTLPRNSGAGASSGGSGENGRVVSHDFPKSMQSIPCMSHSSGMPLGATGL
The test system of test [6] is Epidermal growth factor receptor (Homo sapiens), P00533 [UNDEFINED MUTATION]. The test is described as follows: Selectivity interaction (KinomeScan (DiscoverX)) EUB0000045b EGFR. Conditions: at 10 µM.
Sequence of Epidermal growth factor receptor (Homo sapiens), P00533 [UNDEFINED MUTATION] (P00533 whole entry, looked up, change not shown): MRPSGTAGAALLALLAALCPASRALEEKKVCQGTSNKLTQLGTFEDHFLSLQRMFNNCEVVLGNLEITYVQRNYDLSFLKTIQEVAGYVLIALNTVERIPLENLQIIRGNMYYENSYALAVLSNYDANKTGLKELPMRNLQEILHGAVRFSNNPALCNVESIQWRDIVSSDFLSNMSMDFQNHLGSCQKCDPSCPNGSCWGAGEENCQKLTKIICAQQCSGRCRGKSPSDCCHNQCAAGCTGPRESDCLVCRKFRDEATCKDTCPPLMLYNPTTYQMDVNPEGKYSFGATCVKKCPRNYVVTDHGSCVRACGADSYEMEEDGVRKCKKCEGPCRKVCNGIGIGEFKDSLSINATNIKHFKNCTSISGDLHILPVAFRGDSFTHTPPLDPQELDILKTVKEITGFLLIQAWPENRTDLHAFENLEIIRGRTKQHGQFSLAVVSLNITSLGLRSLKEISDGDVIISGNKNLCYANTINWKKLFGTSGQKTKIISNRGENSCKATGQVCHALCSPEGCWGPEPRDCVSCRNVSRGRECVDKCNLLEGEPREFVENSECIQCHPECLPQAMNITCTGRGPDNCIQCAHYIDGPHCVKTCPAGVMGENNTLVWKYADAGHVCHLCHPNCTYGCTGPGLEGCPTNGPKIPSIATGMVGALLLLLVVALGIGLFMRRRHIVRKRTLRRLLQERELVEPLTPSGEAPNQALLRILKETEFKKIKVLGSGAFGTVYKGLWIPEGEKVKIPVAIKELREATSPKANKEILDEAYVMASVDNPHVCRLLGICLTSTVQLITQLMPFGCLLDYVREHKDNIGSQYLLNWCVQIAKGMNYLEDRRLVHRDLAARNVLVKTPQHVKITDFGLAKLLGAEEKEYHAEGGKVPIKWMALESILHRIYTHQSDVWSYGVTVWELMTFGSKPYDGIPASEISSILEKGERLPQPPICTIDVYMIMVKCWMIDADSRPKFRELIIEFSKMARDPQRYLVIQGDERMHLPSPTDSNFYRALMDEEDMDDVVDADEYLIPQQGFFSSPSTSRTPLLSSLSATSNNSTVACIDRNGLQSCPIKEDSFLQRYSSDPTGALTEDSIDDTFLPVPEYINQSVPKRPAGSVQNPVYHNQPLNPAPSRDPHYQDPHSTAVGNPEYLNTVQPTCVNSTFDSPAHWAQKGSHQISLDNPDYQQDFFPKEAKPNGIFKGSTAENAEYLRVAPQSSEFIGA
Test [7] deals with Phosphatidylinositol 4-kinase beta (Homo sapiens, UniProt Q9UBF8). Description: Selectivity interaction (KinomeScan (DiscoverX)) EUB0000666a PI4KB. Conditions: at 10 µM.
Sequence of Phosphatidylinositol 4-kinase beta (Q9UBF8 2-816 limits assumed): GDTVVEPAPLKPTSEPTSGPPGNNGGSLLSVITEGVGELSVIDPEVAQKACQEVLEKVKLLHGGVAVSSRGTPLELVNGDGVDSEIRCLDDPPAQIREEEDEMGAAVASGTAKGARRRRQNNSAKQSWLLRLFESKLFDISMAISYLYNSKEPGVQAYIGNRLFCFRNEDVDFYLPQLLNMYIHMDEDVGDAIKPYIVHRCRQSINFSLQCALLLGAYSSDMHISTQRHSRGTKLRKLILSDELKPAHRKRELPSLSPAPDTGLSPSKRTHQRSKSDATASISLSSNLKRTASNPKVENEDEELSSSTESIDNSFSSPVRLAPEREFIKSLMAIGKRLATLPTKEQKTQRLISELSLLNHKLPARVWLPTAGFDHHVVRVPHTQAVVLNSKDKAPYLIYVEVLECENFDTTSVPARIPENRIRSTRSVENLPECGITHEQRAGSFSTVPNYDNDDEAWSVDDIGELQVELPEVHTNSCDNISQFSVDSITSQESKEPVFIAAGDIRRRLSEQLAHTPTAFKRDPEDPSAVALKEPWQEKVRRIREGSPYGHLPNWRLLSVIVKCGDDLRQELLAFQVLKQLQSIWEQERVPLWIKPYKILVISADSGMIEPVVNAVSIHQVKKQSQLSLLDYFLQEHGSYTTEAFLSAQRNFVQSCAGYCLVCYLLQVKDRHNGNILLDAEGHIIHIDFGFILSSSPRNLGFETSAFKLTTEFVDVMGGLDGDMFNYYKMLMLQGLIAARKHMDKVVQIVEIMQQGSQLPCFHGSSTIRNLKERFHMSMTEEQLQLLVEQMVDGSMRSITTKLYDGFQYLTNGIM
Test [8] concerns the target T1, Protein kinase C iota type (Homo sapiens) (UniProt P41743).
T1 sequence (whole entry): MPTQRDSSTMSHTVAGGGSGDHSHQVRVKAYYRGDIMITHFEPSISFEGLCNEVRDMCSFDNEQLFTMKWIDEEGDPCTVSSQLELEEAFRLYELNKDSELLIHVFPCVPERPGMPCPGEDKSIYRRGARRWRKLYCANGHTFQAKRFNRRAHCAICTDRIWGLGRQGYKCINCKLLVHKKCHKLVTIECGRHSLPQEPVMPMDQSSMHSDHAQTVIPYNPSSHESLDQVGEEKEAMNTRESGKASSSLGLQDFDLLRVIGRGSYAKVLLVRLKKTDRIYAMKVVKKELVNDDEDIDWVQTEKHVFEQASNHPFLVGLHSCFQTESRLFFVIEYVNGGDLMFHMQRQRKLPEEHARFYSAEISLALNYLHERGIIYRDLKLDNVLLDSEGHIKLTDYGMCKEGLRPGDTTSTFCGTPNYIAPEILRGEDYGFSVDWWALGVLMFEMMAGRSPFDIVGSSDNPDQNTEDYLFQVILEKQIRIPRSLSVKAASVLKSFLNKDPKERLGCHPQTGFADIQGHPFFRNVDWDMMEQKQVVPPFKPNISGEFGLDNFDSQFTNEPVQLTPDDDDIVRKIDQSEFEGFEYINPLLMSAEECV
The test is described as follows: Selectivity interaction (KinomeScan (DiscoverX)) EUB0000666a PRKCI. Conditions: at 10 µM.

Test [9] deals with T2, Protein arginine N-methyltransferase 9 (Homo sapiens, UniProt Q6P2P2).
T2 sequence (Q6P2P2 whole entry): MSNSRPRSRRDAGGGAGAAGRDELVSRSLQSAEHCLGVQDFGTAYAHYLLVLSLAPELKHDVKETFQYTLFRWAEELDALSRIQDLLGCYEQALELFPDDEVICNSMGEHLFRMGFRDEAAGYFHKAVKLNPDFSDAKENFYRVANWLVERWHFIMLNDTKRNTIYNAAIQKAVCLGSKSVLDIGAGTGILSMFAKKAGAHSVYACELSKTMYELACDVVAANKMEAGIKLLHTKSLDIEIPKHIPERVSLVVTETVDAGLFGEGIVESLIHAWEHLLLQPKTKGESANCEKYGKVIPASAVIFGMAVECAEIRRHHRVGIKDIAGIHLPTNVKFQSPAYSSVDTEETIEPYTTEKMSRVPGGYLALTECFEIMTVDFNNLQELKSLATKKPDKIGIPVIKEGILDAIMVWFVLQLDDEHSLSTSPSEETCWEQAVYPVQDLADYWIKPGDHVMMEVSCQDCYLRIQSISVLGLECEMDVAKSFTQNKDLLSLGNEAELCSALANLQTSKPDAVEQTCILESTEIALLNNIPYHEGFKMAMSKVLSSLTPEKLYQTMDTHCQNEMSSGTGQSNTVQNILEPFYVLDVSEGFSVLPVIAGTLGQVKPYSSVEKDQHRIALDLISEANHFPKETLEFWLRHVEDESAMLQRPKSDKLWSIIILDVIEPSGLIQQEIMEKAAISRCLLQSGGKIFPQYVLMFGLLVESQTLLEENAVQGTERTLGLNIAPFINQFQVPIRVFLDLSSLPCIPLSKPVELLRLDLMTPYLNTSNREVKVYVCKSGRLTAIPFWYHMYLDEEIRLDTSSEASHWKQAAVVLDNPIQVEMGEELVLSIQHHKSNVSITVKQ
Description: Selectivity interaction (Scintillation proximity assays) EUB0000230b PRMT9. (SPA uses beads or plates that emit light when radiolabelled molecules are held near them.)

The target in test [10] is Activin receptor type-2A (Homo sapiens) (UniProt P27037). Description: Selectivity interaction (KinomeScan (DiscoverX)) EUB0000607a ACVR2A. The settings on record: at 10 µM.
Sequence of Activin receptor type-2A (Homo sapiens) (P27037 whole entry): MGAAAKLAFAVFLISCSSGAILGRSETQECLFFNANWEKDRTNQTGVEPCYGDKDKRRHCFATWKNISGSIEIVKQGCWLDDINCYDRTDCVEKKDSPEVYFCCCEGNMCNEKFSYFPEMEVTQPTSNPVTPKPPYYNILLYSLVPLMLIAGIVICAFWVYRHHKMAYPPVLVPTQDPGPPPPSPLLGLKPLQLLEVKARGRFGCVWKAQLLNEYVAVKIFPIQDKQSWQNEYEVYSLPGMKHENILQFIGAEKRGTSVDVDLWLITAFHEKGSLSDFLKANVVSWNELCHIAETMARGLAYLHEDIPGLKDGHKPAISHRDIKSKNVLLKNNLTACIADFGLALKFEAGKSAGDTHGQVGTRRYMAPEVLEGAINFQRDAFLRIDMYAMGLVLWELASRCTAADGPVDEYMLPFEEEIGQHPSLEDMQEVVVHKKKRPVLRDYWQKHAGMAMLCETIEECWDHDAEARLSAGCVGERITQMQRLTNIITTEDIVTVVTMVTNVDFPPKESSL
Test [11] addresses Death-associated protein kinase 2 (Homo sapiens) (UniProt Q9UIK4). Description: Selectivity interaction (KinomeScan (DiscoverX)) EUB0000607a DAPK2. The settings on record: at 10 µM.
Test [12] deals with Serine/threonine-protein kinase B-raf (Homo sapiens) (UniProt P15056). The test is described as follows: Selectivity interaction (Kinase panel (DSF assay)) EUB0001559a BRAF. A general note: Differential scanning fluorimetry follows unfolding on heating by fluorescence.
Test [13] addresses T3, MAP kinase-activated protein kinase 5 (Homo sapiens) (UniProt Q8IW41).
T3 sequence (whole entry): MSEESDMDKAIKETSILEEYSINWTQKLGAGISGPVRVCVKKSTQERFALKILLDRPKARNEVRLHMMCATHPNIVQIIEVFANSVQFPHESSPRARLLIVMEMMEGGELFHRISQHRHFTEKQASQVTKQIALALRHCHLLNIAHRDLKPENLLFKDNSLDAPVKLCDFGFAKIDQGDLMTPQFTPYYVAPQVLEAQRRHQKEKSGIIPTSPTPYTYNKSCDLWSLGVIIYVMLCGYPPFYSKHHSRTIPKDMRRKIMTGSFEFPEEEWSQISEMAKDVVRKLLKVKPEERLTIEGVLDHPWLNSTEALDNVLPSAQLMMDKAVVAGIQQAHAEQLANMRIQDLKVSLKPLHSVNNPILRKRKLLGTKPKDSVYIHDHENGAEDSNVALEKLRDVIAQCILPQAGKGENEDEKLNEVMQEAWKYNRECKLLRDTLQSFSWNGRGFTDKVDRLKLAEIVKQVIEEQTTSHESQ
Description: Selectivity interaction (KinomeScan (DiscoverX)) EUB0000595a MAPKAPK5. Conditions: at 10 µM.

For test [14], the target named is Mitogen-activated protein kinase 8 (Homo sapiens, UniProt P45983). The test is described as follows: Selectivity interaction (KinomeScan (DiscoverX)) EUB0000595a MAPK8. Conditions: at 10 µM.
Sequence of Mitogen-activated protein kinase 8 (P45983 whole entry): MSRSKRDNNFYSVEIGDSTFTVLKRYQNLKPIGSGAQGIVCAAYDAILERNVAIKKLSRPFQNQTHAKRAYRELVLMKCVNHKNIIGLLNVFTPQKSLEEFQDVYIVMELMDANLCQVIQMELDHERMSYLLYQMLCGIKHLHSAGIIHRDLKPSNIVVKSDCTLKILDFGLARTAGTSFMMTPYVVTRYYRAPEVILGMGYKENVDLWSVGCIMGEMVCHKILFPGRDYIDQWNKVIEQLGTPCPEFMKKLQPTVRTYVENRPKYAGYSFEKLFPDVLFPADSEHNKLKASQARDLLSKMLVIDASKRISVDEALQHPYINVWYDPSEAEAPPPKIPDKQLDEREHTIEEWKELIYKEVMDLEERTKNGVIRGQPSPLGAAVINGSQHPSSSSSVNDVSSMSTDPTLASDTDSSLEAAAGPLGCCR
In test [15] the target is 5'-AMP-activated protein kinase catalytic subunit alpha-2 (Homo sapiens) (UniProt P54646). Description: Selectivity interaction (KinomeScan (DiscoverX)) EUB0001619a PRKAA2. Conditions: at 1 µM.
Sequence of 5'-AMP-activated protein kinase catalytic subunit alpha-2 (Homo sapiens) (P54646 whole entry, looked up): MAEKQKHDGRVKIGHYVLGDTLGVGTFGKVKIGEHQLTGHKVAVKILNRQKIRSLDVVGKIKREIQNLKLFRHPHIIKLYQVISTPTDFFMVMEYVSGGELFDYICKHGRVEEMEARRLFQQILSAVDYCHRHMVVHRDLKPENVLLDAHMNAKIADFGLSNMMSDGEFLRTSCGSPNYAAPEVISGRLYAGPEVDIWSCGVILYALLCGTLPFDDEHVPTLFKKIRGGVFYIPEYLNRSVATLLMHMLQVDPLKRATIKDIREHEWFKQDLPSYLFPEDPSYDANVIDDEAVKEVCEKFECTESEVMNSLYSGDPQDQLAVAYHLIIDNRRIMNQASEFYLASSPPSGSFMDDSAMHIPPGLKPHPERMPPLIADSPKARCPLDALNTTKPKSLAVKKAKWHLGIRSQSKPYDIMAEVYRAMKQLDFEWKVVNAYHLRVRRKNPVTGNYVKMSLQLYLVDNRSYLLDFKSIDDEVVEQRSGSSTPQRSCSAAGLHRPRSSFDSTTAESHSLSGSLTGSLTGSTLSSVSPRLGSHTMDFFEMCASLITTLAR
The target in test [16] is Tyrosine-protein kinase Srms (Homo sapiens) (UniProt Q9H3Y6). The test is described as follows: Selectivity interaction (KinomeScan (DiscoverX)) EUB0000618a SRMS. The settings on record: at 10 µM.

With `CCn1c(-c2nc3cc(C(=O)N4CCCC(N)C4)ccc3n2C)cc2ccccc21` (stereo unspecified), in test [1], the pXC50 was < 4.3 M.
For the compound `Cc1cc([C@@H](C)Nc2ccccc2C(=O)O)c2nc(N3CCOCC3)cc(=O)n2c1` [AZD-6482], the % of control in [2] was 100%.
As to `Nc1cnc(N2CCc3cc(S(=O)(=O)Nc4c(F)cc(Cl)cc4F)cc(N4CCCC4=O)c32)nc1` [TP-020n], the % of control in test [3] is 100%.
In turn, `COc1cc(Nc2nc(C)cc(-c3cnn4nc(OC)ccc34)n2)cc(C(F)(F)F)c1` displayed a % of control in test [4] of 98%.
With `CC(=O)c1cc(-c2ccccc2OCC2CC2)c2ncccn12`, in [5], the % of control was found to be 93%.
In test [6], `C=CC(=O)Nc1cc(-n2c(=O)ccc3cnc4ccc(-c5ccc(NS(C)(=O)=O)cc5)cc4c32)ccc1C` registered a % of control of 75%.
Consider `O=C(NOC[C@H](O)CO)c1ccc(F)c(F)c1Nc1ccc(I)cc1F`, for which the % of control stood at 100% in [7] and 70% in [8].
Take `CNCCN1CCC(c2cc(CN(C)C(=O)c3cccc(Oc4ccccc4)c3)ccn2)CC1`: in test [9], the IC50 was > 10 µM.
Consider `CNC(=O)Nc1ccc(-c2nc(N3CC4CCC(C3)O4)c3cnn(C4CCC5(CC4)OCCO5)c3n2)cc1`, for which the % of control was 78% in [10] and 100% in test [11].
In the case of `CN(C(=O)c1cnn2cccnc12)c1cc2c(cc1N1CCOCC1)C(=O)N(C[C@@H](F)C(C)(C)O)C2`, the dTM in [12] is 1.7 K.
For the compound `COCC(=O)NC/C=C/c1ccc2ncnc(Nc3ccc(Oc4ccc(C)nc4)c(C)c3)c2c1` [CP-724714], the % of control in test [13] was determined as 100%; in [14], 66%.
As to `N#Cc1cccc(-c2c[nH]c3ncnc(N4CCOCC4)c23)c1`, the % of control in test [15] was 22%.
The compound `O[C@H]1CC[C@H](Nc2ncc3nc(Nc4c(F)cc(F)cc4F)n([C@H]4CCOC4)c3n2)CC1` returned a % of control in [16] of 89%.

These data come from ChEMBL document CHEMBL5465560, “Selectivity Literature for EUbOPEN Chemogenomic Library” (2024).
